Assay [1] deals with NCI‐H716. Nature of the assay: CCK-8 cell proliferation assay. The note with it: Homo sapiens, NCI-H716; FGFR2 amplification; CCK-8, 72 h; read-out: antiproliferative IC50, NCI‐H716. Type of assay: cell-based. How it is done: The base medium for MDA‐MB‐453 cell line is DMEM medium (CORNING, USA). All other cell lines were cultured in RPMI‐1640 medium supplemented with 10% FBS, 100 U/ml of penicillin, and […] of streptomycin in 5% CO2 at 37℃. The cells in the logarithmic growth phase were used for the experiments.
(§1) Cells were seeded in 96‐well plate in complete medium (1000–6000 cells/well) and cultured for overnight. Then the cells were exposed to gradient concentrations (0.0005–10 μM) of compounds. Cell proliferation was analyzed by Cell Counting Kit 8 (CK04, Dojindo Laboratories, Japan) after co‐incubation for a further 72 h. IC50 values were calculated by fitting of concentration–response curves using GraphPad Prism 8.01 software. Each assay was repeated at least three times.
The expression and activation levels of FGFR1–4 in these cells were determined via western blot experiments (Figure S1).
For orientation: Tetrazolium dyes change colour on reduction, which living cells bring about.

For assay [2], the system named is Ba/F3‐FGFR1. Nature of the assay: CCK-8 proliferation assay in Ba/F3 stable cells. Type of assay: cell-based. The note with it: Mus musculus, read-out: IC50 (μΜ) Ba/F3‐FGFR1. Here is the method:
(§2) The Ba/F3 cell lines stably expressing FGFR1, FGFR1‐V561M, FGFR1‐V561F, FGFR1‐K656N, and FGFR1‐K656E were self‐established through electroporation pCDNA3.1‐TEL plasmids using the Amaxa Cell Line Nucleofector Kit V (Lonza, Cologne, Germany). Stable cell lines were selected by G418 (Merck, USA) and then withdrawal of IL‐3 (R&D). […] Parental Ba/F3 cells were maintained in RPMI 1640 supplemented with 10% FBS, 100 U/ml of penicillin, […] of streptomycin, and 10 ng/ml of IL‐3, while all Ba/F3 stable cell lines were cultured in the same medium without IL‐3.
as §1
(§3) There is, however, no commercially available FGFR1 mutant kinase to validate this. Therefore, we constructed Ba/F3 model cells stably expressing FGFR1‐WT, K656E, K656N, V561M, and V561F mutations.

For assay [3], the system named is Ba/F3‐FGFR1‐K656E. Nature of the assay: CCK-8 proliferation assay in Ba/F3 stable cells. The assay is classed as cell-based. The note with it: Mus musculus. Here is the method:
as §2, §1, §3

For assay [4], the system named is Ba/F3‐FGFR1‐K656N. Kind of assay: CCK-8 proliferation assay in Ba/F3 stable cells. The assay is classed as cell-based. The note with it: Mus musculus, read-out: IC50 (μΜ) Ba/F3‐FGFR1‐K656N. How it is done:
as §2, §1, §3

Assay [5] concerns Ba/F3‐FGFR1‐V561F. Nature of the assay: CCK-8 proliferation assay in Ba/F3 stable cells. Type of assay: cell-based. The note with it: Mus musculus. Here is the method:
as §2, §1, §3

Assay [6] concerns Ba/F3‐FGFR1‐V561M. Kind of assay: CCK-8 proliferation assay in Ba/F3 stable cells. The note with it: Mus musculus. The assay is classed as cell-based. Here is the method: as §2, §1, §3
The subject of assay [7] is Ba/F3(+IL‐3). Kind of assay: CCK-8 proliferation assay in parental Ba/F3 cells. The note with it: Mus musculus, read-out: IC50 (μΜ) Ba/F3(+IL‐3). The assay is classed as cell-based. How it is done: as §2, §1, §3
In assay [8] the test system is Ba/F3‐FGFR1‐V561F. Nature of the assay: Cell cycle analysis by flow cytometry (propidium iodide). The assay is classed as cell-based. How it is done:
About 6 × 10^5 cells were re‐suspended in 150 μl of BD Cytofix/Cytoperm buffer solution I for 10 min at room temperature. The cell suspensions were added with BD Cytofix/Cytoperm buffer solution II and incubated with another 10 min at room temperature, and then incubated with 200 μl of propidium iodide buffer (0.1 mg/ml) in the dark for 10 min at 4℃. Assays were performed with a Guava easyCyte flow cytometer (Merck, USA).
In general terms: A flow cytometer gives signals particle by particle.

Assay [9] deals with Ba/F3‐FGFR1‐V561F. Kind of assay: Apoptosis assay by flow cytometry (Annexin V / 7-AAD). The assay is classed as cell-based. How it is done: After incubation, cells were collected and washed twice with pre‐cold PBS. About 6 × 10^5 cells were resuspended in 100 μl of 1× BD binding buffer solution (#556454, BD), and then stained with 7‐ADD (#559925, BD) and Annexin V‐PE (#556422, BD) in the dark for 15 min. Finally, 400 μl of 1×BD binding buffer solution were added to stop dyeing. The cells were then measured on a Guava easyCyte flow cytometer (Merck, USA).

The subject of assay [10] is Ba/F3‐FGFR1 xenograft. Nature of the assay: Mouse xenograft tumor model. The assay is classed as in vivo, CB17‐SCID mice. The note with it: for tumor growth inhibition (TGI): oral gavage. The source says:
(§4) All animal studies were approved by the Institutional Animal Care and Use Committee. Male CB17‐SCID mice were purchased from Vital River Laboratory Animal Technology Inc. (Beijing, China). The right flanks of SCID mice were subcutaneously injected with 2 x 10^6 Ba/F3‐FGFR1, Ba/F3‐FGFR1‐V561F, or Ba/F3‐FGFR1‐V561M cells, respectively. When the average tumor volume reached 100–200 mm^3, mice bearing tumor were randomly divided into groups and treated with compounds or vehicle. All the compounds were suspended in 0.5% CMC‐Na aqueous solution. […] The body weight and tumor volume of animals were measured once every 2 days. Tumor volumes were calculated as L×W×W/2, where L and W are the length and width of the tumor, respectively. At the experiment terminal, tumor tissues were dissected, paraffin embedded, and sectioned for hematoxylin and eosin (H&E), immunohistochemistry (IHC), and TUNEL analysis.

The subject of assay [11] is Ba/F3‐FGFR1‐V561F xenograft. Kind of assay: Mouse xenograft tumor model. Type of assay: in vivo, CB17‐SCID mice.
Text: as §4

Assay [12] concerns FGFR1 signal pathway in Ba/F3‐FGFR1‐V561F. Nature of the assay: Western blot of FGFR1 signal pathway. The assay is classed as cell-based. Here is the method:
Cells were treated with different concentrations of compound or DMSO for indicated time. Then, cells were lysed with 1 × SDS sample lysis buffer (recommended by CST). […] After blocking with 5% BSA in TBST solution (0.5% Tween‐20) at room temperature for 4 hrs, the membranes were incubated with the corresponding primary antibody (1:2000–1:200) at 4℃ overnight. After washing with TBST for 3–5 times, the HRP‐conjugated secondary antibodies were incubated for 2 hrs. The protein signals were detected with Amersham Imager 600 system (GE, Boston, MA, USA) using an ECL western blotting detection kit (Thermo Fisher Scientific, Waltham, MA, USA).
Cell lysates were separated by sodium dodecyl sulfate‐polyacrylamide gel electrophoresis (SDS‐PAGE) and analyzed by western blot for phosphorylated FGFR1, FGFR1, phosphorylated FRS2, FRS2, phosphorylated AKT (Ser473), AKT, phosphorylated Erk, and Erk. GAPDH was used as a control

Where two headings read alike, the source gives them in different places. Where only a bound is given, the exact number is not on record here.

Turning to `Cc1ccc(C(=O)Nc2ccc(CN3CCN(C)CC3)c(C(F)(F)F)c2)cc1C#Cc1cnc2[nH]ncc2c1` [GZD824], the IC50 in [1] turned out to be 4 ± 0.5 nM; in [2] (BaF3, 72 h), 8.1 ± 1.1 nM; in [3] (BaF3, 72 h, read-out: IC50 (μΜ) Ba/F3‐FGFR1‐K656E), 20.6 ± 0.8 nM; in [4] (BaF3, 72 h), 12 ± 2 nM; in assay [5] (BaF3, 72 h, read-out: IC50 (μΜ) Ba/F3‐FGFR1‐V561F) it was 12 ± 0.5 nM; in assay [6] (BaF3, 72 h, read-out: IC50 (μΜ) Ba/F3‐FGFR1‐V561M), 55 ± 3.7 nM. For the same molecule, the IC50 in assay [7] (BaF3, 72 h) is 1.71 ± 0.59 µM. Further, in [8] (100 nM, 24 h), the G0/G1 phase amounted to 71.13%. Also, the apoptosis in assay [9] (100 nM, 48 h) turned out to be 71.01%. Moreover, the “tumor growth inhibition (TGI)” value stood at 76.5% in assay [10] (20 mg/kg) and 73.4% in assay [11] (20 mg/kg, p.o., q2d). In addition, the “IHC (pFGFR1) and TUNEL in tumor tissues” value in assay [10] (12 days) is “inhibits the FGFR1 activation and induces apoptosis”; in [11] (12 days), “inhibits the FGFR1 activation and induces apoptosis”. For the same molecule, the “FGFR1 phosphorylation, downstream FRS2 and ERK1/2” value in [12] (4 h, 3.7 nM to 300 nM) is given as “dose‐dependent inhibition”.
As to `CCN1CCN(c2ccc(Nc3cc(N(C)C(=O)Nc4c(Cl)c(OC)cc(OC)c4Cl)ncn3)cc2)CC1` [BGJ398], the IC50 in [1] was 4.2 ± 0.8 nM; in [2] (BaF3, CCK-8, 72 h) it was 31 ± 2.9 nM; in assay [3] (BaF3, CCK-8, 72 h, read-out: IC50 (μΜ) Ba/F3‐FGFR1‐K656E), 330 ± 2.9 nM; in [3] (BaF3, bound stated, read-out: IC50 Ba/F3‐FGFR1‐K656E), over 330 nM; in [4] (BaF3, CCK-8, 72 h), 82 ± 5.5 nM; in assay [5] (BaF3, CCK-8, 72 h, read-out: IC50 (μΜ) Ba/F3‐FGFR1‐V561F), 4250 ± 64 nM. Further, the IC50 was over 330 nM in assay [5] (BaF3, bound stated, read-out: IC50 Ba/F3‐FGFR1‐V561F); 4380 ± 280 nM in assay [6] (BaF3, CCK-8, 72 h, read-out: IC50 (μΜ) Ba/F3‐FGFR1‐V561M); over 330 nM in [6] (BaF3, bound stated, read-out: IC50 Ba/F3‐FGFR1‐V561M); 5.66 ± 0.88 µM in assay [7] (BaF3, parental cells with IL-3, CCK-8, 72 h). The “effect on cell cycle” value in assay [8] (1000 nM) is “weak effect”. Also, the effect on apoptosis entry in assay [9] (1000 nM) is listed as “weak effect”. Also, the “tumor growth inhibition (TGI)” value is recorded as 64.2% in [10] (10 mg/kg, once every day) and 2.4% in assay [11] (30 mg/kg, oral gavage, once every day). Further, in [12] (300 nM), the “activation of FGFR1 and its signal pathway” value is “no effects”.

These data come from publication PMC8290231 (Cancer Medicine, 2021).
